Measured values published in patent US8835442B2, “3-substituted 7-imino-2-thioxo-3, 7-dihydro-2H-thiazolo [4,5-di pyrimidin-6-yl—and process for preparation thereof” (Council of Scientific & Industrial Research, priority 2009, dated 2014).
Like-named read-outs stand apart in the source and are kept apart here.

How the values were obtained:
A2A receptor = molecular target: T1, A2A receptor (Homo sapiens, UniProt P29274); experiment: cAMP functional assay in forskolin-pretreated HEK 293 cells; format: cell-based; conditions: 25 μM forskolin 2 h, then 100 nM compound for 24 h
T1 construct: host or cells: HEK 293
Experimental: To determine the modulation in cAMP concentrations, cells were pre-treated with Forskolin. Forskolin is commonly used to activate adenylyl cyclase, so as to raise the levels of cAMP, in the various cell physiology experiments. […] Cells were washed with ice-cold PBS (pH 7.4). Further, cells were treated with 0.1M HCl, incubated for 10 minutes and visually inspected to verify cell lysis. Lysed cells were centrifuged at 1000 rpm at room temperature and the supernatant was used directly for cAMP assay using direct cAMP assay kit. All standards and samples were run in duplicate. 50 μl of the neutralizing reagent was added into each well of 96-well microplate coated with goat anti-rabbit IgG antibody, except the total activity (TA) and blank wells. Again, 100 μl of HCl (0.1M) was added into the NSB (Non-specific bound) and the Bo (0 pmol/ml standard) Wells: 100 μl of standards 1 to 5 was pippeted into the appropriate wells. 50 μl of 0.1M HCl was added into the NSB wells, followed by 50 μl of blue conjugate (alkaline phosphatase conjugated with cAMP) into each well except the TA and blank wells. 50 μl of yellow coloured primary antibody against cAMP into each well, except the blank, TA and NSB wells. Microplate was incubated at room temperature for 2 hours on a plate shaker. Wells were washed twice with 400 μl of wash solution. 5 μl of blue conjugate was added to the TA wells, followed by the addition of 200 μl of p-nitrophenyl phosphate substrate solution to every well. Plate was again incubated for 1 hour without shaking. Reaction was stopped by adding 50 μl of stop solution to every well.
The average net O.D. bound for each standard and sample was calculated using formula; Average Net OD=Average bound OD−Average NSB OD
The binding of each pair of standard wells as a percentage of the maximum binding well (Bo) was calculated using the formula; Percent Bound=Net OD/Net Bo OD×100
Standard curve was prepared using Logit-Log Paper plot by drawing percent bound (B/Bo) versus concentration of cAMP for the standards. The concentration of the cAMP in the samples was determined by interpolation.
Binding parameters were estimated by the computerized non-linear fitting program Graph Pad (Prism 4.0). […] Data were expressed as geometric means with 95% confidence limits in parentheses. Estimation of cAMP concentrations in functional assay was carried by Student's paired t-test. P<0.05 was considered significant. All analysis was performed by using GraphPad Prism 4.0 (GraphPad Software, San Diego, USA). Results are given, as mean±S.E.M

human A2AR = human A2AR (Homo sapiens, UniProt P29274); experiment: Competitive radioligand binding assay, [3H] ZM 241385, membranes of HEK 293 cells stably expressing human A2AR; conditions: for hA1/hA2A ratio: selectivity: Ki hA1 / Ki hA2A; for selectivity over A1 adenosine receptor: A2AR versus A1R binding
Experimental: (§1) Aliquots of membrane proteins from both A2AR and A1R were rapidly frozen and stored at −20° C.
(§2) About 10 μg of membrane protein was added to each well of multiscreen 96-well plate equipped with GF/B filters. Incubation buffer (50 mM Tris, 1 mM EDTA, pH 7.4) containing adenosine deaminase (1 U/ml) was added to each well to remove endogenous adenosine bound to the receptors and volume was adjusted to 100 μl by adding incubation buffer. Plate was incubated at 37° C. for 1 hour. […] Final volume was adjusted to 200 μl by adding incubation buffer and incubated at 26° C. for 30 minutes. Binding reaction was terminated by rapid filteration of filter plates using vacuum manifold system. Filterate (unbound radioligand) was collected in a 96-well plate laying down the filter plate. Filters were washed three times with ice-cold washing buffer (50 mM Tris-Cl; 2.5 mM MgCl2 pH 7.4). Finally, 100 μl of scintillation fluid was added to all wells of plate containing unbound filtrate as well as to the filter plate (bound radioligand) and incubated overnight at room temperature. […] DPCPX were read using β-counter.
(§3) About 10 μg of membrane protein was added to each well of a 96-well filter plate. Incubation buffer containing adenosine deaminase (1 U/ml) was added to the membrane protein and incubated at 37° C. for 1 hour, to remove endogenous adenosine. […] Filter plates were incubated at 26° C. for 30 minutes and reaction was terminated by rapid filtration of unbound radioligands. Filters containing ligand bound receptors were washed three times with ice-cold washing buffer to completely remove any unbound radioligand or receptor. Finally, 100 μl of scintillation fluid was added to each well and incubated overnight at room temperature. β-counts emitted from bound radioligands ([^3H] ZM241385 and [^3H] DPCPX) were counted using β-counter. Duplicate values of β-counts per minute at corresponding concentrations (1 pM to 1 μM) were added to the data sheet of graph pad prism 4.0. Concentration values were considered as X-values and counts per minute were considered as Y-values (in duplicate). X-values were transformed into logX and Ki value was calculated using nonlinear regression (curve fit program).
(§4) Binding parameters were estimated by the computerized non-linear fitting program Graph Pad (Prism 4.0). […] Data were expressed as geometric means with 95% confidence limits in parentheses. […] P<0.05 was considered significant. All analysis was performed by using GraphPad Prism 4.0 (GraphPad Software, San Diego, USA). Results are given, as mean±S.E.M

human A1R = molecular target: T2, human A1R (Homo sapiens, UniProt P30542); experiment: Competitive radioligand binding assay, [3H] DPCPX, membranes of HEK 293 cells stably expressing human A1R
T2 sequence (P30542 1-326): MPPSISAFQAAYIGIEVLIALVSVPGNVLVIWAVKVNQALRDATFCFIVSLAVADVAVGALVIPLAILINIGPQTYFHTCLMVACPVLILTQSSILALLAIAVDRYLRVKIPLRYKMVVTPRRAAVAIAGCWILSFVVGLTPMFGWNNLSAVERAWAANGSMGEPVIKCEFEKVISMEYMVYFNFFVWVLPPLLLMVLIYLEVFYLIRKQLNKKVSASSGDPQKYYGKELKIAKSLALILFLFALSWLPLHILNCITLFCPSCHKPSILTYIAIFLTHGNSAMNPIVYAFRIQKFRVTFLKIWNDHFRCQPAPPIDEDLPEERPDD
Experimental: as §1, §2, §3, §4

[1] = read-out: hA1 binding Ki ± SD, displacement of 0.75 nM [3H] DPCPX, HEK 293 membranes, test compounds 1 pM to 1 μM
[2] = read-out: hA2A binding Ki ± SD, displacement of 1 nM [3H] ZM 241385, HEK 293 membranes, test compounds 1 pM to 1 μM

T1 sequence (P29274 whole entry): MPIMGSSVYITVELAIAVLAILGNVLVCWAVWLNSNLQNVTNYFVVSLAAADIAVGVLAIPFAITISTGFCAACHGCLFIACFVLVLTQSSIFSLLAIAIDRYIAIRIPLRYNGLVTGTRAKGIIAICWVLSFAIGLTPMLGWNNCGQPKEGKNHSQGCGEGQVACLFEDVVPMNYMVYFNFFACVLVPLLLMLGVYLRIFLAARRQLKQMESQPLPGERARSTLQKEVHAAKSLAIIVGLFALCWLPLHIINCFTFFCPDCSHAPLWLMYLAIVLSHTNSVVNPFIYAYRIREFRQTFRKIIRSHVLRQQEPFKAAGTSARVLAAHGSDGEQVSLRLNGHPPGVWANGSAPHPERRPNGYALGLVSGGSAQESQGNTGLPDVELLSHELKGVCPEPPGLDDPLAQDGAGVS
Sequence of human A2AR (P29274 whole entry): as above

| Molecule | cAMP concentration (A2A receptor) | Ki (human A2AR) | hA1/hA2A ratio (human A2AR) | melting point | Ki (human A1R; [1]) | selectivity over A1 adenosine receptor (human A2AR) | Ki (human A2AR; [2]) | Ki (human A1R) |
| --- | --- | --- | --- | --- | --- | --- | --- | --- |
| CCCCn1c(=S)sc2c(=N)n(NC(N)=O)cnc21 [Compound 17, (7-Imino-3-butyl-2-thioxo-3,7-dihydro-2H-thiazolo[4,5-d]pyrimidin-6-yl)-urea] | 0.083 nM | 0.089 ± 0.01 nM | 11.685 | 222 °C | – | – | – | 1.04 ± 0.84 nM |
| N=c1c2sc(=S)n(-c3ccc(I)cc3)c2ncn1NC(N)=O [Compound 20, (3-p-iodophenyl-7-imino-2-thioxo-3,7-dihydro-2H-thiazolo[4,5-d]pyrimidin-6-yl)-urea] | 0.076 nM | 0.017 ± 0.01 nM | 147.06 | 235 °C | – | 144 fold | – | 2.5 ± 1.1 nM |
| CCn1c(=S)sc2c(=N)n(NC(=O)c3ccco3)cnc21 [Compound 22, Furan-2-carboxylic acid (3-ethyl-7-imino-2-thioxo-3,7-dihydro-2H-thiazolo[4,5-d]pyrimidin-6-yl)-amide] | 0.12 nM | 1.2 ± 1.1 nM | 0.0133 | 226 °C | – | – | – | 0.016 ± 0.01 nM |
| N=c1c2sc(=S)n(-c3ccccc3)c2ncn1NC(=O)c1ccco1 [Compound 26, Furan-2-carboxylic acid (7-imino-3-phenyl-2-thioxo-3,7-dihydro-2H-thiazolo[4,5-d]pyrimidin-6-yl)-amide] | 0.048 nM | 0.33 ± 0.75 nM | 0.026 | 228 °C | – | – | – | 0.0085 ± 0.001 nM |
| Furan-2-carboxylic acid (7-imino-3-propenyl-2-thioxo-3,7-dihydro-2H-thiazolo[4,5-d]pyrimidin-6-yl)-amide [Compound 25] | 0.084 nM | – | 3.47 | – | 0.59 ± 0.11 nM | – | 0.17 ± 0.1 nM | – |

Further lines, results first:

| cAMP concentration (A2A receptor) | Ki (human A2AR) | hA1/hA2A ratio (human A2AR) | melting point | Ki (human A1R; [1]) | selectivity over A1 adenosine receptor (human A2AR) | Ki (human A2AR; [2]) | Ki (human A1R) | Molecule |
| --- | --- | --- | --- | --- | --- | --- | --- | --- |
| 0.085 nM | 0.09 ± 0.01 nM | 0.00177 | 212 °C | – | – | – | – | CCn1c(=S)sc2c(=N)n(NC(N)=O)cnc21 [Compound 15, (3-Ethyl-7-imino-2-thioxo-3,7-dihydro-2H-thiazolo[4,5-d]pyrimidin-6-yl)-urea] |
| 0.14 nM | – | 736.84 | 220 °C | 2.8 ± 0.8 nM | 766 fold | 0.0038 ± 0.001 nM | – | CCCn1c(=S)sc2c(=N)n(NC(N)=O)cnc21 [Compound 16] |
| 0.08 nM | 0.092 ± 0.01 nM | 5.11 | 202 °C | – | – | – | 0.47 ± 0.1 nM | C=CCn1c(=S)sc2c(=N)n(NC(N)=O)cnc21 [Compound 18] |
| 0.078 nM | 0.063 ± 0.008 nM | 23.81 | 225 °C | – | – | – | 1.5 ± 1.1 nM | N=c1c2sc(=S)n(-c3ccccc3)c2ncn1NC(N)=O [Compound 19, (7-Imino-3-phenyl-2-thioxo-3,7-dihydro-2H-thiazolo[4,5-d]pyrimidin-6-yl)-urea] |
| 0.067 nM | 0.023 ± 0.014 nM | 6.09 | 190 °C | – | – | – | 0.14 ± 0.086 nM | N=c1c2sc(=S)n(Cc3ccccc3)c2ncn1NC(N)=O [Compound 21, (3-Benzyl-7-imino-2-thioxo-3,7-dihydro-2H-thiazolo[4,5-d]pyrimidin-6-yl)-urea] |
| 0.092 nM | 0.024 ± 0.01 nM | 3.625 | 206 °C | – | – | – | 0.087 ± 0.05 nM | CCCn1c(=S)sc2c(=N)n(NC(=O)c3ccco3)cnc21 [Compound 23, Furan-2-carboxylic acid (7-imino-3-propyl-2-thioxo-3,7-dihydro-2H-thiazolo[4,5-d]pyrimidin-6-yl)-amide] |
| 0.06 nM | 0.029 ± 0.01 nM | 0.183 | 210 °C | – | – | – | 0.0053 ± 0.001 nM | CCCCn1c(=S)sc2c(=N)n(NC(=O)c3ccco3)cnc21 [Compound 24, Furan-2-carboxylic acid (3-butyl-7-imino-2-thioxo-3,7-dihydro-2H-thiazolo[4,5-d]pyrimidin-6-yl)-amide] |
